Measurements as given in patent US7265130B2, “NPY Y5 antagonist” (Shionogi & Co., Ltd., priority 1999, dated 2007).

How the values were obtained:
human NPY Y5 receptor [1] = target: T1, human NPY Y5 receptor (Homo sapiens, UniProt Q15761); test: Affinity for NPY Y5 receptor ([125I] peptide YY binding, CHO cell membranes); details: inhibition of specific [125I] peptide YY binding, membranes of CHO cells expressing NPY Y5 receptor
T1 construct: expressed in transfected cells
T1 sequence (Q15761 1-445): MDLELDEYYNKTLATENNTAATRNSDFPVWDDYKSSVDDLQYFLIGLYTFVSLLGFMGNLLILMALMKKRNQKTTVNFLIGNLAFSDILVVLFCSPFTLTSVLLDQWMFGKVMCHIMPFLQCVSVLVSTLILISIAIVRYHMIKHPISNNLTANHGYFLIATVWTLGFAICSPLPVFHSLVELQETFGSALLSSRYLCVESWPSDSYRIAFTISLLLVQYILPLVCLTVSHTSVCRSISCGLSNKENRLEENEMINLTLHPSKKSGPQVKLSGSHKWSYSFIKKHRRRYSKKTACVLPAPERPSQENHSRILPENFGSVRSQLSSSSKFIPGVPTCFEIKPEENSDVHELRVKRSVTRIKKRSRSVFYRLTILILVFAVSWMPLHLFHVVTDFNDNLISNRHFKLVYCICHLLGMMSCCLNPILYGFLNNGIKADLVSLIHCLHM
Excerpt: Experiment 1 Affinity for NPY Y5 Receptor
cDNA sequence encoding a human NPY Y5 receptor (WO096/16542) was cloned in the expression vector pME18S (Takebe et al. Mol. Cell. Biol. 8, 8957). The obtained expression vector was transfected into a host CHO cells by using a Lipofect AMINE reagent (Trademark, Gibco BRL Co., Ltd.) according to an instruction protocol to obtain the cells that stably express NPY Y5 receptor.
The membranes prepared from the above CHO cells expressing NPY Y5 receptor, the compound of the present invention and 30,000 cpm [^125I] peptide YY (60 pM of final concentration: Amersham) were incubated in the assay buffer (20 mM HEPES-Hanks buffer containing 0.1% bovine serum albumin, pH 7.4) at 25° C. for 2 hours, and then the mixture was filtered with a glassfilter GF/C treated with polyethyleneimine. After the glassfilter was washed with 50 mM Tris-HCl buffer (pH 7.4), the radioactivity on the filter was measured with a gamma counter. The non-specific binding was detected in the presence of 200 nM of peptide YY. The 50% inhibitory concentration of the test compound against the specific peptide YY binding (IC50 value) was calculated (Inui, A. et al. Endocrinology 131, 2090-2096 (1992)).

human NPY Y5 receptor [2] = target: T1, human NPY Y5 receptor; test: cAMP production inhibitory activity in CHO cells; assay type: cell-based; details: against 50 nM NPY inhibition of forskolin stimulated cAMP, CHO cells expressing human NPY Y5 receptor
Procedure: Experiment 2 cAMP production inhibitory activity in CHO cells
After CHO cells expressing human NPY Y5 receptor were incubated in the presence of 2.5 mM isobutylmethylxanthine (SIGMA) at 37° C. for 20 min., the compound of the present invention was added and incubated for 5 min. Then, 50 nM NPY and 10 μM forskolin (SIGMA) were added to the cells and incubated for 30 min. After the reaction was terminated by adding 1N HCl, the amount of cAMP in the supernatant was measured with EIA kit (Amersham LIFE SCIENCE).

| Structure (SMILES) | IC50 (human NPY Y5 receptor [1]) | IC50 (human NPY Y5 receptor [2]) |
| --- | --- | --- |
| Cc1ccc(NC(=O)C2CCC(NS(=O)(=O)C(C)(C)C)CC2)cc1F (stereo not drawn) [Ia-161] | 1.9 nM | 18 nM |
| CC(C)(C)S(=O)(=O)NC1CCC(C(=O)Nc2ccc(N3CCc4ccccc43)cc2)CC1 (stereo not drawn) [Compound I-75] | 0.55 nM | 3.4 nM |
| CC(C)(C)S(=O)(=O)NC1CCC(C(=O)Nc2cc(F)cc(F)c2)CC1 (stereo not drawn) [Ia-136] | 1.6 nM | 13 nM |
| CC(C)(C)S(=O)(=O)NC1CCN(C(=O)Nc2ccc3oc(=O)ccc3c2)CC1 [Ia-68] | 9.5 nM | 180 nM |
| CC(C)(C)S(=O)(=O)NC1CCC(C(=O)Nc2ccc(-n3cnc(Cl)c3Cl)cc2)CC1 (stereo not drawn) [Compound I-62] | 0.58 nM | 16 nM |
| CCOC(=O)C1CCN(c2ccc(NC(=O)C3CCC(NS(=O)(=O)C(C)(C)C)CC3)cc2)CC1 (stereo not drawn) [Compound I-57] | 4.8 nM | 47 nM |
| Cc1ccc2cc(NC(=O)C3CCC(NS(=O)(=O)C(C)(C)C)CC3)ccc2n1 (stereo not drawn) [Compound I-138] | 1 nM | 18.6 nM |
| CC(C)(C)S(=O)(=O)NC1CCC(C(=O)Nc2ccc(N3CCC(O)C3)cc2)CC1 (stereo not drawn) [Compound I-90] | 2.8 nM | 50 nM |
| CC(C)S(=O)(=O)NC1CCN(C(=O)Nc2ccc(C3CCCCC3)cc2)CC1 [Ia-224] | 0.1 nM | 1.2 nM |
| CCCCc1ccc(NC(=O)N2CCC(NS(=O)(=O)C(C)(C)C)CC2)cc1 [Compound I-120, 4-t-butylsulfonylaminopiperidine-1-carboxylic acid(4-butylphenyl)amide] | 1.4 nM | 4.8 nM |
| CCCCc1ccc(NC(=O)C2CCC(NS(=O)(=O)C(C)(C)C)CC2)cc1 (stereo not drawn) [Compound I-25] | 0.6 nM | 2.6 nM |
| CC(C)(C)S(=O)(=O)NC1CCC(C(=O)Nc2ccc(Oc3ccccc3)nc2)CC1 (stereo not drawn) [Compound I-168] | 2.1 nM | 32 nM |
| CC(C)S(=O)(=O)NC1CCC(C(=O)Nc2ccc(N3C[C@@H](C)O[C@@H](C)C3)c(F)c2)CC1 (stereo partly drawn) [Ia-49] | 2.6 nM | 83 nM |
| CC(C)(C)S(=O)(=O)NC1CCC(C(=O)Nc2ccc(C3CCOCC3)cc2)CC1 (stereo not drawn) [Ia-248] | 0.27 nM | 17 nM |
| CC(C)(C)S(=O)(=O)NC1CCC(C(=O)Nc2ccc(F)c(F)c2F)CC1 (stereo not drawn) [Ia-24] | 5.2 nM | 74 nM |
| CCCCOc1ccc(NC(=O)C2CCC(NS(=O)(=O)C(C)(C)C)CC2)c(N)c1 (stereo not drawn) [Compound I-172] | 0.91 nM | 36 nM |
| CC(C)(C)S(=O)(=O)NC1CCC(C(=O)Nc2ccc(C3CCCCC3)cc2)CC1 (stereo not drawn) [Ia-203] | 0.2 nM | 2.6 nM |
| COc1ccc(CCNC(=O)C2CCC(NS(=O)(=O)C(C)(C)C)CC2)cc1OC (stereo not drawn) [Compound I-147] | 7.1 nM | 63 nM |
| CC(C)(C)S(=O)(=O)NC1CCC(C(=O)Nc2ccc(NC(=O)C3CCCCC3)cc2)CC1 (stereo not drawn) [Ia-190] | 0.34 nM | 1000 nM |
| CCCCc1ccc(NC(=O)C2CCC(CNS(=O)(=O)C(C)(C)C)CC2)cc1 (stereo not drawn) [Compound I-24] | 9.6 nM | 71 nM |
| CC(C)S(=O)(=O)NC1CCC(C(=O)Nc2ccc3c(c2)CCC3)CC1 (stereo not drawn) [Ia-141] | 1 nM | 5.7 nM |

| Structure (SMILES) | IC50 (human NPY Y5 receptor [1]) | IC50 (human NPY Y5 receptor [2]) |
| --- | --- | --- |
| CC(C)S(=O)(=O)NC1CCN(C(=O)Nc2ccc(OC3CCOCC3)cc2)CC1 [Ia-237] | 1.1 nM | 15 nM |
| CC(C)(C)S(=O)(=O)NC1CCC(C(=O)Nc2ccc(Oc3ccccc3)cc2)CC1 (stereo not drawn) [Compound I-50] | 0.3 nM | 8.4 nM |
| CC(C)(C)S(=O)(=O)NC1CCC(C(=O)Nc2cccnc2Oc2ccc(F)cc2F)CC1 (stereo not drawn) [Compound I-144] | 3.4 nM | 52 nM |
| CCCCc1ccc(NC(=O)CCCCNS(=O)(=O)CC(C)C)cc1 [Compound I-110] | 4.3 nM | 13.6 nM |
| CC(C)S(=O)(=O)NCCCCC(=O)Nc1ccc2c(c1)C(=O)N(c1ccccc1)C2=O [Ia-226] | 0.37 nM | 21 nM |
| CC(C)(C)S(=O)(=O)Nc1ccc(NC(=O)C2CCC(NS(=O)(=O)C(C)(C)C)CC2)cc1 (stereo not drawn) [Ia-58] | 2.5 nM | 110 nM |
| CCC(C)COC(=O)/C=C/c1ccc(NC(=O)C2CCC(NS(=O)(=O)C(C)(C)C)CC2)cc1 (stereo not drawn) [Compound I-133] | 0.9 nM | 21.1 nM |
| CC(C)(C)S(=O)(=O)NC1CCN(C(=O)Nc2ccc(C(F)(F)F)cc2)CC1 [Ia-219] | 2.5 nM | 28 nM |
| CCN(CCNC(=O)C1CCC(NS(=O)(=O)C(C)(C)C)CC1)c1ccccc1 (stereo not drawn) [Compound I-149] | 0.83 nM | 15 nM |
| CN1C(=O)c2ccc(NC(=O)C3CCC(NS(=O)(=O)C(C)(C)C)CC3)cc2C1=O (stereo not drawn) [Ia-61] | 0.68 nM | 19 nM |
| CC(C)(C)S(=O)(=O)NC1CCC(C(=O)Nc2ccc(-c3ccco3)cc2)CC1 (stereo not drawn) [Ia-177] | 0.49 nM | 7.5 nM |
| CC(=O)c1cccc(NC(=O)C2CCC(NS(=O)(=O)C(C)(C)C)CC2)c1 (stereo not drawn) [Compound I-197] | 6.7 nM | 38 nM |
| CC(C)(C)S(=O)(=O)Nc1ccc(C(=O)Nc2ccc(OC3CCCC3)cc2)cc1 [Ia-212] | 0.52 nM | 2.6 nM |
| CC(C)(C)S(=O)(=O)NCCCCC(=O)Nc1ccc2oc(=O)ccc2c1 [Ia-78] | 2 nM | 150 nM |
| CC(C)(C)S(=O)(=O)NC1CCC(C(=O)Nc2ccc(OC3CCOC3)cc2)CC1 (stereo not drawn) [Ia-205] | 2.4 nM | 99 nM |
| CCCc1ccc(NC(=O)C2CCC(NS(=O)(=O)C(C)(C)C)CC2)cc1 (stereo not drawn) [Ia-10] | 0.47 nM | 2.7 nM |
| CC(C)(C)S(=O)(=O)NC1CCC(C(=O)Nc2cnc(-c3ccccc3)cn2)CC1 (stereo not drawn) [Ia-59] | 0.71 nM | 16 nM |
| CC(C)(O)c1ccc(NC(=O)C2CCC(NS(=O)(=O)C(C)(C)C)CC2)cc1 (stereo not drawn) [Ia-56] | 2.3 nM | 96 nM |
| CC(C)(C)S(=O)(=O)NC1CCC(C(=O)Nc2ccc(N3CCCS3(=O)=O)cc2)CC1 (stereo not drawn) [Ia-208] | 1.2 nM | 9.7 nM |
| CC(C)(C)S(=O)(=O)NCCCCC(=O)Nc1ccc2c(c1)C(=O)N(c1ccccc1)C2=O [Ia-81] | 2.7 nM | 4.5 nM |
| CC(C)(C)S(=O)(=O)NC1CCC(C(=O)Nc2cc(-c3ccco3)[nH]n2)CC1 (stereo not drawn) [Compound I-146] | 2.3 nM | 20 nM |
